Results as given in the NIST ThermoML archive (doi:10.1021/je800579j).
Numbers after ± are expanded uncertainties.

Assay: xn = mol fraction of the nth substance listed
Details: Liquid, Pycnometric method

C1COCCO1 [1,4-dioxane] + Cc1ccccc1
mass density (288.15 K, x1 = 0.0688): 881.09 ± 0.74 kg/m3 | mass density (288.15 K, x1 = 0.1373): 890.67 ± 0.75 kg/m3 | mass density (288.15 K, x1 = 0.2112): 901.34 ± 0.76 kg/m3 | mass density (288.15 K, x1 = 0.2858): 912.47 ± 0.78 kg/m3 | mass density (288.15 K, x1 = 0.3552): 923.15 ± 0.79 kg/m3 | mass density (288.15 K, x1 = 0.4361): 936.02 ± 0.8 kg/m3 | mass density (288.15 K, x1 = 0.5064): 947.57 ± 0.81 kg/m3 | mass density (288.15 K, x1 = 0.5819): 960.38 ± 0.82 kg/m3 | mass density (288.15 K, x1 = 0.6506): 972.39 ± 0.83 kg/m3 | mass density (288.15 K, x1 = 0.7212): 985.11 ± 0.84 kg/m3 | mass density (288.15 K, x1 = 0.7903): 997.93 ± 0.86 kg/m3 | mass density (288.15 K, x1 = 0.864): 1012.02 ± 0.87 kg/m3 | mass density (288.15 K, x1 = 0.9336): 1025.74 ± 0.88 kg/m3 | mass density (288.15 K, x1 = 1): 1039.23 ± 0.87 kg/m3 | mass density (293.15 K, x1 = 0.0688): 876.32 ± 0.72 kg/m3 | mass density (293.15 K, x1 = 0.1373): 885.84 ± 0.73 kg/m3 | mass density (293.15 K, x1 = 0.2112): 896.45 ± 0.74 kg/m3 | mass density (293.15 K, x1 = 0.2858): 907.51 ± 0.75 kg/m3 | mass density (293.15 K, x1 = 0.3552): 918.13 ± 0.76 kg/m3 | mass density (293.15 K, x1 = 0.4361): 930.92 ± 0.78 kg/m3 | mass density (293.15 K, x1 = 0.5064): 942.41 ± 0.79 kg/m3 | mass density (293.15 K, x1 = 0.5819): 955.15 ± 0.8 kg/m3 | mass density (293.15 K, x1 = 0.6506): 967.1 ± 0.81 kg/m3 | mass density (293.15 K, x1 = 0.7212): 979.74 ± 0.82 kg/m3 | mass density (293.15 K, x1 = 0.7903): 992.49 ± 0.83 kg/m3 | mass density (293.15 K, x1 = 0.864): 1006.51 ± 0.84 kg/m3 | mass density (293.15 K, x1 = 0.9336): 1020.16 ± 0.86 kg/m3 | mass density (293.15 K, x1 = 1): 1033.59 ± 0.87 kg/m3 | mass density (298.15 K, x1 = 0.0688): 871.54 ± 0.73 kg/m3 | mass density (298.15 K, x1 = 0.1373): 881 ± 0.74 kg/m3 | mass density (298.15 K, x1 = 0.2112): 891.55 ± 0.75 kg/m3 | mass density (298.15 K, x1 = 0.2858): 902.55 ± 0.76 kg/m3 | mass density (298.15 K, x1 = 0.3552): 913.11 ± 0.77 kg/m3 | mass density (298.15 K, x1 = 0.4361): 925.82 ± 0.78 kg/m3 | mass density (298.15 K, x1 = 0.5064): 937.25 ± 0.79 kg/m3 | mass density (298.15 K, x1 = 0.5819): 949.92 ± 0.81 kg/m3 | mass density (298.15 K, x1 = 0.6506): 961.8 ± 0.82 kg/m3 | mass density (298.15 K, x1 = 0.7212): 974.37 ± 0.83 kg/m3 | mass density (298.15 K, x1 = 0.7903): 987.06 ± 0.84 kg/m3 | mass density (298.15 K, x1 = 0.864): 1001 ± 0.85 kg/m3 | mass density (298.15 K, x1 = 0.9336): 1014.58 ± 0.86 kg/m3 | mass density (298.15 K, x1 = 1): 1027.95 ± 0.87 kg/m3 | mass density (303.15 K, x1 = 0.0688): 866.76 ± 0.73 kg/m3 | mass density (303.15 K, x1 = 0.1373): 876.16 ± 0.74 kg/m3 | mass density (303.15 K, x1 = 0.2112): 886.65 ± 0.75 kg/m3 | mass density (303.15 K, x1 = 0.2858): 897.58 ± 0.76 kg/m3 | mass density (303.15 K, x1 = 0.3552): 908.08 ± 0.78 kg/m3 | mass density (303.15 K, x1 = 0.4361): 920.72 ± 0.79 kg/m3 | mass density (303.15 K, x1 = 0.5064): 932.09 ± 0.8 kg/m3 | mass density (303.15 K, x1 = 0.5819): 944.69 ± 0.81 kg/m3 | mass density (303.15 K, x1 = 0.6506): 956.5 ± 0.82 kg/m3 | mass density (303.15 K, x1 = 0.7212): 969.01 ± 0.83 kg/m3 | mass density (303.15 K, x1 = 0.7903): 981.63 ± 0.84 kg/m3 | mass density (303.15 K, x1 = 0.864): 995.5 ± 0.85 kg/m3 | mass density (303.15 K, x1 = 0.9336): 1009.01 ± 0.86 kg/m3 | mass density (303.15 K, x1 = 1): 1022.32 ± 0.88 kg/m3 | mass density (308.15 K, x1 = 0.0688): 861.99 ± 0.74 kg/m3 | mass density (308.15 K, x1 = 0.1373): 871.33 ± 0.75 kg/m3 | mass density (308.15 K, x1 = 0.2112): 881.75 ± 0.76 kg/m3 | mass density (308.15 K, x1 = 0.2858): 892.62 ± 0.77 kg/m3 | mass density (308.15 K, x1 = 0.3552): 903.06 ± 0.78 kg/m3 | mass density (308.15 K, x1 = 0.4361): 915.63 ± 0.79 kg/m3 | mass density (308.15 K, x1 = 0.5064): 926.93 ± 0.8 kg/m3 | mass density (308.15 K, x1 = 0.5819): 939.46 ± 0.82 kg/m3 | mass density (308.15 K, x1 = 0.6506): 951.21 ± 0.82 kg/m3 | mass density (308.15 K, x1 = 0.7212): 963.65 ± 0.84 kg/m3 | mass density (308.15 K, x1 = 0.7903): 976.2 ± 0.85 kg/m3 | mass density (308.15 K, x1 = 0.864): 989.99 ± 0.86 kg/m3 | mass density (308.15 K, x1 = 0.9336): 1003.44 ± 0.87 kg/m3 | mass density (308.15 K, x1 = 1): 1016.68 ± 0.88 kg/m3 | mass density (313.15 K, x1 = 0.0688): 857.21 ± 0.74 kg/m3 | mass density (313.15 K, x1 = 0.1373): 866.49 ± 0.75 kg/m3 | mass density (313.15 K, x1 = 0.2112): 876.85 ± 0.76 kg/m3 | mass density (313.15 K, x1 = 0.2858): 887.66 ± 0.77 kg/m3 | mass density (313.15 K, x1 = 0.3552): 898.04 ± 0.79 kg/m3 | mass density (313.15 K, x1 = 0.4361): 910.54 ± 0.8 kg/m3 | mass density (313.15 K, x1 = 0.5064): 921.77 ± 0.81 kg/m3 | mass density (313.15 K, x1 = 0.5819): 934.23 ± 0.82 kg/m3 | mass density (313.15 K, x1 = 0.6506): 945.92 ± 0.83 kg/m3 | mass density (313.15 K, x1 = 0.7212): 958.29 ± 0.84 kg/m3 | mass density (313.15 K, x1 = 0.7903): 970.77 ± 0.85 kg/m3 | mass density (313.15 K, x1 = 0.864): 984.49 ± 0.86 kg/m3 | mass density (313.15 K, x1 = 0.9336): 997.87 ± 0.88 kg/m3 | mass density (313.15 K, x1 = 1): 1011.05 ± 0.89 kg/m3 | mass density (318.15 K, x1 = 0.0688): 852.43 ± 0.74 kg/m3 | mass density (318.15 K, x1 = 0.1373): 861.65 ± 0.75 kg/m3 | mass density (318.15 K, x1 = 0.2112): 871.95 ± 0.75 kg/m3 | mass density (318.15 K, x1 = 0.2858): 882.7 ± 0.77 kg/m3 | mass density (318.15 K, x1 = 0.3552): 893.02 ± 0.78 kg/m3 | mass density (318.15 K, x1 = 0.4361): 905.45 ± 0.79 kg/m3 | mass density (318.15 K, x1 = 0.5064): 916.61 ± 0.8 kg/m3 | mass density (318.15 K, x1 = 0.5819): 929 ± 0.81 kg/m3 | mass density (318.15 K, x1 = 0.6506): 940.63 ± 0.82 kg/m3 | mass density (318.15 K, x1 = 0.7212): 952.93 ± 0.83 kg/m3 | mass density (318.15 K, x1 = 0.7903): 965.34 ± 0.84 kg/m3 | mass density (318.15 K, x1 = 0.864): 978.99 ± 0.85 kg/m3 | mass density (318.15 K, x1 = 0.9336): 992.3 ± 0.86 kg/m3 | mass density (318.15 K, x1 = 1): 1005.42 ± 0.89 kg/m3
